A value given as a limit tells only on which side of the number the result lay.

What all share (assay): Cancer cell growth, Cell Titer-Glo
Common to all, as to type: cell-based
(In general: In ATP-based viability assays light output follows the ATP content of the culture.)

For experiment [1], the system named is EB virus infected human peripheral lymphocyte cells JVM-2. The settings on record: JVM-2, 72 hrs, read-out: Half inhibitory concentration IC50. The source says:
(§1) We further assessed the selectivity of Compound 1 to inhibit the proliferation of cancer cells, by testing the effect of Btk inhibitor on the growth of cancer cells. In the example, we used B-lymphoma cell Ramos, cervical cancer cells HeLa, prostate cancer cells DU145, RV-1 and C4-2, colon cancer cells HCT116, blood cancer cells K562, B-cell lymphoma cells U2932, diffuse large B-cell lymphoma cells OCI-LY10, diffuse histiocytic lymphoma cells SU-DHL-2, diffuse large B-cell lymphoma cells TMD8, human non-small cell lung cancer cells H1975 (expressing EGFR L858R/T790M double mutant gene), human lung adenocarcinoma cells A549 (expressing wild-type EGFR gene), human non-small cell lung cancer cells H460 (expressing wild-type EGFR gene), mantel cell lymphoma (MCL) cells Z-138, EB virus infected human peripheral lymphocyte cells JVM-2, MCL cells REC-1, leukemia cells AML-3, acute promyelocytic leukemia cell line NB-4(Lu+), MDS-RAEB (myelodysplastic syndrome-excessive blasts) cell line SKM-1 human leukemia cell Nomo-1, human B-cell leukemia cell line NALM6, human leukocyte leukemia cells HEL, human T-cell lymphoma cells PF-382, acute myelocytic leukemia (AML) cell line MOLM14, AML cell line MOLM13, human Burkitt's lymphoma cells Namalwa, mouse pro-B cells BaF3, all of where were purchased from ATCC. Also used were mouse TEL-EGFR-BaF3 (stably expressing TEL-EGFR activated kinase), mouse TEL-EGFR/T790-BaF3 cells (stably expressing TEL-EGFR-T790M activated mutant kinase), mouse TEL-EGFR/L858R-BaF3 cells (stably expressing TEL-EGFR-L858R activated mutant kinase), mouse TEL-EGFR/T790/L858R-BaF3 (stably expressing TEL-EGFR-T790M/L858R activated mutant kinase), mouse TEL-BMX-BaF3 cells (stably expressing TEL-BMX activated kinase), mouse TEL-JAK1-BaF3 cells (stably expressing TEL-JAK1 activated kinase), mouse TEL-JAK2-BaF3 cells (stably expressing TEL-JAK2 activated kinase), mouse TEL-JAK3-BaF3 cells (stably expressing TEL-JAK3 activated kinase), where were all established by our laboratory via the following method: the kinase domain sequences of human EGFR, BMX, JAK1, JAK2, JAK3 were amplified respectively by PCR, and these kinase were inserted into the MSCV-Puro vectors with N-terminal TEL segment (Clontech); if there was a mutation, the mutation of the corresponding site was conducted by Site-Directed Mutagenesis kit (Stratagene); the resultants were stably transfected into mouse BaF3 cells by the means of retrovirus, and the IL-3 growth factors were removed, and eventually the EGFR, BMX, JAK1, JAK2, JAK3-transferred protein dependent cell lines were obtained.
(§2) In the example, different concentrations (0.000508 μM, 0.00152 μM, 0.00457 μM, 0.0137 μM, 0.0411 μM, 0.123 μM, 0.370 μM, 1.11 μM, 3.33 μM, 10 μM) of Compound 1 and Compound 19 were added into above cells, and were incubated for 72 hrs. The number of viable cells was determined by quantitating ATP in viable cells using Cell Titer-Glo® (Promega, U.S.) chemiluminescence cell viability assay kit.

For experiment [2], the system named is human T-cell lymphoma cells PF-382. The settings on record: PF-382, 72 hrs, read-out: Half inhibitory concentration IC50.
Text: as §1, §2

In experiment [3] the test system is acute promyelocytic leukemia cell line NB-4(Lu+). The settings on record: 72 hrs, read-out: Half inhibitory concentration IC50.
Text: as §1, §2

In experiment [4] the test system is human Burkitt's lymphoma cells Namalwa. The settings on record: Burkitts lymphoma cell, 72 hrs, read-out: Half inhibitory concentration IC50.
Text: as §1, §2

Another experiment deals with blood cancer cells K562. The settings on record: Homo sapiens; K562, 72 hrs; read-out: Half inhibitory concentration IC50.
Text: as §1, §2

Experiment [5] has as its system diffuse histiocytic lymphoma cells SU-DHL-2. The settings on record: Homo sapiens; SU-DHL-2, 72 hrs; read-out: Half inhibitory concentration IC50.
Text: as §1, §2

In the next experiment the test system is AML cell line MOLM13. The settings on record: Homo sapiens, MOLM-13; MOLM13, 72 hrs; read-out: Half inhibitory concentration IC50.
Text: as §1, §2

For the next experiment, the system named is MCL cells REC-1. The settings on record: Homo sapiens, Rec1; REC-1, 72 hrs; read-out: Half inhibitory concentration IC50.
Text: as §1, §2

The test system of experiment [6] is human non-small cell lung cancer cells H460 (expressing wild-type EGFR gene). As to conditions: NCI-H460, H460, 72 hrs, read-out: Half inhibitory concentration IC50.
Text: as §1, §2

Experiment [7] concerns acute myelocytic leukemia (AML) cell line MOLM14. The settings on record: Homo sapiens, MOLM-14; MOLM14, 72 hrs; read-out: Half inhibitory concentration IC50.
Text: as §1, §2

The test system of experiment [8] is cervical cancer cells HeLa. The settings on record: Homo sapiens, 72 hrs, read-out: Half inhibitory concentration IC50.
Text: as §1, §2

In experiment [9] the test system is mantel cell lymphoma (MCL) cells Z-138. As to conditions: Homo sapiens; Z-138, 72 hrs; read-out: Half inhibitory concentration IC50.
Text: as §1, §2

Experiment [10] concerns prostate cancer cells DU145. The settings on record: Homo sapiens, DU-145; DU145, 72 hrs; read-out: Half inhibitory concentration IC50.
Text: as §1, §2

Experiment [11] has as its system prostate cancer cells C4-2. As to conditions: C4-2, 72 hrs; read-out: Half inhibitory concentration IC50.
Text: as §1, §2

The test system of experiment [12] is human B-cell leukemia cell line NALM6. As to conditions: NALM-6, NALM6, 72 hrs, read-out: Half inhibitory concentration IC50.
Text: as §1, §2

The subject of experiment [13] is human non-small cell lung cancer cells H1975 (expressing EGFR L858R/T790M double mutant gene). As to conditions: NCI-H1975, H1975, 72 hrs, read-out: Half inhibitory concentration IC50.
Text: as §1, §2

Experiment [14] has as its system B-cell lymphoma cells U2932. The settings on record: Homo sapiens; U2932, 72 hrs; read-out: Half inhibitory concentration IC50.
Text: as §1, §2

Experiment [15] relates to human leukemia cell Nomo-1. The settings on record: Nomo-1, 72 hrs, read-out: Half inhibitory concentration IC50.
Text: as §1, §2

The next experiment has as its system B-lymphoma cell Ramos. As to conditions: Homo sapiens, 72 hrs, read-out: Half inhibitory concentration IC50.
Text: as §1, §2

Turning to `CCC(=O)Nc1cc(-n2c(=O)ccc3cnc4ccc(-n5cccn5)cc4c32)ccc1C` [Compound 19, N-(2-methyl-5-(2-oxo-9-(1H-pyrazol-1-yl)benzo[H][1,6]naphthyridin-1(2H)-yl)phenyl) propionamide], the IC50 (in experiment [1]; in experiment [2]; in experiment [3]; in experiment [4]; in the experiment on blood cancer cells K562; in [5]) was greater than 10 µM in each case. The IC50 (with AML cell line MOLM13; in the experiment on MCL cells REC-1; in experiment [6]; in experiment [7]; in experiment [8]; in experiment [9]) was greater than 10 µM throughout. Besides, the IC50 in experiment [10], in experiment [11], in experiment [12], in [13], in experiment [14] and in experiment [15] was greater than 10 µM each time. In addition, the IC50 with B-lymphoma cell Ramos was greater than 10 µM.

As for `C=CC(=O)Nc1cc(-n2c(=O)ccc3cnc4ccc(-n5cccn5)cc4c32)ccc1C` [Compound 1, N-(2-methyl-5-(2-oxo-9-(1H-pyrazol-1-yl)benzo[H][1,6]naphthyridin-1(2H)-yl)phenyl)acrylamide], the IC50 is 3.4 µM in [1]; 3.49 µM in [2]; 3.7 µM in [3]; 4.5 µM in experiment [4]; greater than 10 µM in the experiment with blood cancer cells K562; 5.02 µM in experiment [5]. The IC50 was 0.59 µM with AML cell line MOLM13; 1.6 µM in the experiment on MCL cells REC-1; greater than 10 µM in experiment [6]; 1.5 µM in experiment [7]; greater than 10 µM in experiment [8]; 8.5 µM in [9]. Also, the IC50 is greater than 10 µM in experiment [10]; greater than 10 µM in experiment [11]; 1.17 µM in [12]; 3.81 µM in experiment [13]; 1.15 µM in experiment [14]; 4.9 µM in experiment [15]. Moreover, in the experiment with B-lymphoma cell Ramos, the IC50 was greater than 10 µM.

Values taken from patent US9814709B2, “Bruton's tyrosine kinase inhibitor” (HEFEI INSTITUTES OF PHYSICAL SCIENCE, CHINESE ACADEMY OF …, priority 2014, dated 2017).
